Active and inactive are the calls of the source. The calls are words filed in the database; no cut-off is given here.
Tests used:
Quadruplex DNA [1] = assay: Stabilization of c-Myc G4 quadruplex DNA (unknown origin) assessed as temperature at which 50% protein unfold by circular dichroism melting assay; assay type: nucleic-acid assay
A549 = assay: Cytotoxicity against human A549 cells assessed as reduction in cell viability by CCK8 assay; assay type: functional, cell-based
KYSE-30 = assay: Cytotoxicity against human KYSE-30 cells assessed as reduction in cell viability by CCK8 assay; assay type: functional, cell-based
MDA-MB-231 [2] = assay: Cytotoxicity against human MDA-MB-231 cells assessed as reduction in cell viability by CCK8 assay; assay type: functional, cell-based
Quadruplex DNA [3] = assay: Binding affinity to c-MYC G4 quadraplex DNA (unknown origin) assessed as dissociation constant by fluorescence titration based analysis; assay type: nucleic-acid assay
Quadruplex DNA [4] = assay: Stabilization of c-MYC G4 quadruplex DNA (unknown origin) assessed as change in temperature incubated for 2 hrs in presence of KRAS by FRET assay; assay type: nucleic-acid assay
Quadruplex DNA [5] = assay: Stabilization of c-MYC G4 quadruplex DNA (unknown origin) assessed as change in temperature incubated for 2 hrs in presence of HRAS by FRET assay; assay type: nucleic-acid assay
Quadruplex DNA [6] = assay: Stabilization of c-MYC G4 quadruplex DNA (unknown origin) assessed as change in temperature incubated for 2 hrs in presence of duplex DNA by FRET assay; assay type: nucleic-acid assay
MDA-MB-231 [7] = assay: Downregulation of c-MYC expression in human MDA-MB-231 cells measured after 24 hrs by RT-PCR analysis; assay type: functional, cell-based; conditions: dose 1-4 µM
MDA-MB-231 [8] = assay: Downregulation of c-MYC protein expression in human MDA-MB-231 cells at 1 to 4 uM measured after 24 hrs by Western blot analysis; assay type: functional, cell-based; conditions: dose 1-4 µM
HEK293 = assay: Downregulation of c-MYC expression in human HEK293 cells transfected with psiCHECK2 luciferase plasmid at 1 to 4 uM incubated for 24 hrs by dual luciferase reporter assay; assay type: functional, cell-based; conditions: dose 1-4 µM
MDA-MB-231 [9] = assay: Induction of DNA damage in human MDA-MB-231 cells assessed as increase in gamma-H2AX fluorescence intensity at 4 uM measured after 24 hrs by immunofluorescence analysis; assay type: functional, cell-based
MDA-MB-231 [10] = assay: Induction of cell cycle arrest in human MDA-MB-231 cells assessed as accumulation of cells at G0/G1 phase at 1 uM incubated for 24 hrs by propidium iodide staining based flow cytometry analysis (reference value: 66.35%); assay type: functional
MDA-MB-231 [11] = assay: Induction of cell cycle arrest in human MDA-MB-231 cells assessed as accumulation of cells at S phase at 1 uM incubated for 24 hrs by propidium iodide staining based flow cytometry analysis (reference value: 15.50%); assay type: functional
MDA-MB-231 [12] = assay: Induction of cell cycle arrest in human MDA-MB-231 cells assessed as accumulation of cells at G2/M phase at 1 uM incubated for 24 hrs by propidium iodide staining based flow cytometry analysis (reference value: 17.58%); assay type: functional
MDA-MB-231 [13] = assay: Induction of cell cycle arrest in human MDA-MB-231 cells assessed as accumulation of cells at G2/M phase at 2 uM incubated for 24 hrs by propidium iodide staining based flow cytometry analysis (reference value: 17.58%); assay type: functional
MDA-MB-231 [14] = assay: Induction of cell cycle arrest in human MDA-MB-231 cells assessed as accumulation of cells at sub-G1 phase at 4 uM incubated for 24 hrs by propidium iodide staining based flow cytometry analysis (reference value: 0.57%); assay type: functional
MDA-MB-231 [15] = assay: Induction of cell cycle arrest in human MDA-MB-231 cells assessed as accumulation of cells at S phase at 4 uM incubated for 24 hrs by propidium iodide staining based flow cytometry analysis (reference value: 15.50%); assay type: functional
MDA-MB-231 [16] = assay: Induction of cell cycle arrest in human MDA-MB-231 cells assessed as downregulation of cyclin B expression at 1 to 4 uM incubated for 24 hrs by Western blot analysis; assay type: functional, cell-based; conditions: dose 1-4 µM
MDA-MB-231 [17] = assay: Induction of apoptosis in human MDA-MB-231 cells assessed as increase in late apoptotic cells at 1 to 4 uM incubated for 24 hrs by Annexin-V FITC/PI double staining based flow cytometry analysis; assay type: functional, cell-based; conditions: dose 1-4 µM
MDA-MB-231 [18] = assay: Induction of apoptosis in human MDA-MB-231 cells assessed as decrease in necrotic cells at 1 to 4 uM incubated for 24 hrs by Annexin-V FITC/PI double staining based flow cytometric analysis; assay type: functional, cell-based; conditions: dose 1-4 µM
MDA-MB-231 [19] = assay: Induction of apoptosis in human MDA-MB-231 cells assessed as caspase-3 cleavage at 1 to 4 uM incubated for 24 hrs by Western blot analysis; assay type: functional, cell-based; conditions: dose 1-4 µM
MDA-MB-231 [20] = assay: Cytotoxicity against human MDA-MB-231 cells assessed as inhibition of cell growth at 0 to 20 uM incubated for 24 hrs by CCK-8 assay; assay type: functional, cell-based; conditions: MDA-MB-231, 24 h
MDA-MB-231 [21] = assay: Cytotoxicity against human MDA-MB-231 cells assessed as inhibition of cell growth at 0 to 20 uM incubated for 72 hrs by CCK-8 assay; assay type: functional, cell-based; conditions: MDA-MB-231, 72 h
[22] = Cytotoxicity against human MCF-10A cells assessed as inhibition of cell proliferation by CCK-8 assay; assay type: toxicity, cell-based
MDA-MB-231 [23] = assay: Antitumor activity against human MDA-MB-231 cells xenografted in BALB/c nude mouse assessed as reduction in tumor volume at 5 mg/kg, ip administered every other day for 20 days and measured every 4 days; assay type: functional, organism-based; conditions: time 20.0 day
[24] = Toxicity in BALB/c mouse xenografted with human MDA-MB-231 cells assessed as effect on body weight at 5 mg/kg, ip administered every other day for 20 days and measured every 4 days; assay type: organism-based; conditions: in vivo, 480 h, time 20 day
[25] = Toxicity in BALB/c mouse xenografted with human MDA-MB-231 cells assessed as distress at 5 mg/kg, ip administered every other day for 20 days and measured every 4 days; assay type: organism-based; conditions: in vivo, 480 h, time 20 day
[26] = Toxicity in BALB/c mouse xenografted with human MDA-MB-231 cells assessed as discomfort at 5 mg/kg, ip administered every other day for 20 days and measured every 4 days; assay type: organism-based; conditions: in vivo, 480 h, time 20 day
[27] = Toxicity in BALB/c mouse xenografted with human MDA-MB-231 cells assessed as effect on heart at 5 mg/kg, ip administered every other day for 20 days and measured every 4 days; assay type: organism-based; conditions: in vivo, 480 h, time 20 day
[28] = Toxicity in BALB/c mouse xenografted with human MDA-MB-231 cells assessed as effect on lung at 5 mg/kg, ip administered every other day for 20 days and measured every 4 days; assay type: organism-based; conditions: in vivo, 480 h, time 20 day
[29] = Toxicity in BALB/c mouse xenografted with human MDA-MB-231 cells assessed as effect on kidney at 5 mg/kg, ip administered every other day for 20 days and measured every 4 days; assay type: organism-based; conditions: in vivo, 480 h, time 20 day
MDA-MB-231 [30] = assay: Antitumor activity against human MDA-MB-231 cells xenografted in BALB/c mouse assessed as reduction in c-MYC expression at 5 mg/kg, ip administered every other day for 20 days and measured every 4 days by immunohistochemistry analysis; assay type: functional, organism-based; conditions: time 20.0 day
Quadruplex DNA [31] = assay: Stabilization of c-MYC G4 quadruplex DNA KRAS (unknown origin) assessed as shift in temperature at which 50% protein unfold by circular dichroism melting assay
Quadruplex DNA [32] = assay: Stabilization of c-MYC G4 quadruplex DNA HRAS (unknown origin) assessed as change in temperature at which 50% protein unfold by circular dichroism melting assay

With CN1CCN(c2ccc(-c3nc(-c4ccc(-c5ccc(C(F)(F)F)cc5)cc4)[nH]c3-c3ccc(N4CCN(C)CC4)cc3)cc2)CC1 the T (Quadruplex DNA [1]) was 34.6 °C, the IC50 (A549) was 1260 nM and the IC50 (KYSE-30) was 1310 nM. For the same compound, the IC50 (MDA-MB-231 [2]) was 1840 nM, the Kd (Quadruplex DNA [3]) was 2700 nM and the Activity (Quadruplex DNA [4]) was “Active”. The Activity (Quadruplex DNA [5]) was “Active”, the Activity (Quadruplex DNA [6]) was “Active” and the Activity (MDA-MB-231 [7]) was “Dose-Dependent Effect”. For the same compound, the Activity (MDA-MB-231 [8]) was “Active”, the Activity (HEK293) was “Active” and the Activity (MDA-MB-231 [9]) was “Active”. It also gave an Activity (MDA-MB-231 [10]) of 74.71%, an Activity (MDA-MB-231 [11]) of 11.14% and an Activity (MDA-MB-231 [12]) of 13.49%. It also gave an Activity (MDA-MB-231 [13]) of 11.35%, an Activity (MDA-MB-231 [14]) of 44.98% and an Activity (MDA-MB-231 [15]) of 6.09%. The Activity (MDA-MB-231 [16]) was “Active”, the Activity (MDA-MB-231 [17]) was “Active” and the Activity (MDA-MB-231 [18]) was “inactive”. The Activity (MDA-MB-231 [19]) was “Active”, the IC50 (MDA-MB-231 [20]) was 1840 nM and the IC50 (MDA-MB-231 [21]) was 660 nM. For the same compound, the IC50 [22] was 8.7 µM, the Activity (MDA-MB-231 [23]) was “Active” and the Activity [24] was “Non-Toxic”. The Activity [25] was “Non-Toxic”, the Activity [26] was “Non-Toxic” and the Activity [27] was “Non-Toxic”. The Activity [28] was “Non-Toxic”, the Activity [29] was “Non-Toxic” and the Activity (MDA-MB-231 [30]) was “Active”. For the same compound, the ΔTm (Quadruplex DNA [31]) was 11.2 °C and the ΔTm (Quadruplex DNA [32]) was 7.1 °C.

From ChEMBL document CHEMBL5380876, “Non-fused imidazole-biphenyl analogs repress triple-negative breast cancer growth by mainly stabilizing the c-MYC G-quadruplex via a multi-site binding mode” (Bioorg Med Chem, 2023)
